These results are taken from patent publication US20200038392A1, “TOPICAL COMPOSITIONS AND METHODS OF PREPARATION AND USE” (Aldeyra Therapeutics, Inc., priority 2018, published 2020).

Data set [1] is classed as physicochemical. From the text: It is important to note that the comparison formulation has a nominal ADX-102 concentration of 1.0% w/w, which was higher than that observed in the aqueous phase of the comparison formulation (0.31% w/w). […] However, it is possible that oil phase excipients may assist in solubilizing ADX-102, allowing it to partition between phases.
Data set [2] is described as follows: ADX-102 oxidation investigation: peroxide spiking (H2O2, NMP) and high temperature stress in PEG 400. The format is physicochemical. As to conditions: both peroxide spiking experiments (H2O2 and NMP); t=48 h at 70° C. The protocol: A preliminary study was performed in an attempt to degrade ADX-102 to a suitable level such that oxidation products observed during long-term stability could be detected. To this end, an ADX-102 in PEG 400 stock solution (0.1% w/w) was prepared and degraded with hydrogen peroxide (H2O2) and N-methylpyrrolidone (NMP) at 0.1 and 1.0% w/w concentrations, respectively. Additionally, the stocks were stressed at 40 and 70° C. to increase degradation. […] Sufficient degradation of ADX-102 was observed following spiking with […] H2O2 and storage at 70° C. for 48 h condition and was therefore considered suitable for use in antioxidant/stabilizer selection experiments described below.

The nature of data set [3]: Saturated solubility of ADX-102 in DoE solvent systems. The format is physicochemical. As to conditions: solvent system SS26; range in brackets. As for the experimental part: Following the visual assessment of placebo formulations, a DoE mixture design for ADX-102 aqueous phase solvent systems was prepared, as shown in Table 22. This was performed in order to assess the solubility of ADX-102 in solvent systems and to confirm that at least a 1.0% w/w and a 5% w/w concentration of ADX-102 in the aqueous phase of the formulation was obtainable. The following excipient levels were assessed during the solvent system DoE experiments: • Water: 0-50% • Transcutol® HP: 0-20% • SR PEG 400: 0-60% • Ethanol: 0-20% • Propylene glycol: 0-15%
SS19, along with SS20 (SS21 was not used due to the high levels of Transcutol® HP), were used as a base for further solvent system development. SS23-SS26 were prepared, broadly based on these systems, with varying levels of excipient and added antioxidant/stabilizer, and preservative. The compositions of these solvent systems are detailed in Table 25. Additionally, penetration enhancers were varied in the developed solvent system, with SS23 (based on SS19) including no Transcutol® and SS25 including diisopropyl adipate, and in the case of SS24, a humectant (glycerol). It should be noted that SS25 became turbid following the addition of diisopropyl adipate.
The solvent system SS26 was developed in order to manufacture a 5% w/w formulation. […]

The nature of data set [4]: Super-refined PEG 400 versus non-refined PEG 400: saturated solubility and chemical stability of ADX-102. It is filed as physicochemical. As to conditions: in PEG 400 (non-super refined). The protocol:
The use and requirement of non-super refined PEG 400 as an excipient was investigated in view of to the higher cost of SR PEG 400. Saturated solubility and chemical stability of ADX-102 in PEG 400 (non-super refined) was performed as described above.

Data set [5] is described as follows: Solubility of ADX-102 in potential receiver fluid systems. The format is physicochemical. As to conditions: aqueous with cosolvent or surfactant or cyclodextrin. The protocol:
The solubility of the drug in a range of receiver fluid systems was determined to ensure that drug release was not limited by the solubility of ADX-102 in the receptor compartment of Franz cells. The receiver fluids selected for investigation were: ethanol and water (50:50 v/v), 2% Brij 98 in ethanol and water (50:50 v/v), 20% PEG in water, 20% PEG 400 in ethanol and water (50:50 v/v) and 2% Tween 80 in water. The findings are summarized below.

≈ marks a conversion by molar mass, not a printed value. Read-outs that look alike come from different tables or passages of the source.

With `CC(C)(O)c1nc2ccc(Cl)cc2cc1N` [ADX-102, 2-[3-amino-6-chloro-quinolin-2-yl]-propan-2-ol], the figures for the Saturated solubility in data set [1] and in data set [4] were 0.31 % w/w and above 20.00 % w/w, respectively. The solubility is 0.31% in data set [1]; 23.5 mg/mL (≈ 99.5 mM) in data set [5] (receiver fluid 1: Ethanol and water (50:50 v/v)); 23.6 mg/mL (≈ 99.5 mM) in data set [5] (receiver fluid 1: ethanol and water (50:50 v/v)); 28.3 mg/mL (≈ 120 mM) in data set [5] (receiver fluid 2: 2% Brij 98 in ethanol and water (50:50 v/v)); 1.31 mg/mL (≈ 5.53 mM) in data set [5] (receiver fluid 3: 20% PEG 400 in water); 20.5 mg/mL (≈ 86.4 mM) in data set [5] (receiver fluid 4: 20% PEG 400 in ethanol and water (50:50 v/v)). The solubility in data set [5] (receiver fluid 5: 2% Tween 80 in water) was 26.3 mg/mL (≈ 111 mM); in data set [5] (receiver fluid systems for Franz cells, range over the investigated receiver fluid systems) it was 1.31 to 28.4 mg/mL (≈ 5.53 to 120 mM). Further, in data set [2], the “ADX-102 remaining after degradation” value was below 70%. Also, the “ADX-102 saturated solubility (% w/w)” value in data set [3] is 6.85 (6.84-6.86) % w/w.
